Test results as given in patent US20090042915A1, “PREVENTIVE OR THERAPEUTIC AGENT FOR HERPESVIRUS-RELEATED DISEASE” (ASTELLAS PHARMA INC., priority 2005, published 2009).

Legend:
HSV-1 strain WT-51 = test: HSV-1 skin infection mouse model (in vivo test); design: species or system HR-1 hairless mouse; conditions: for Lesion inhibitory ratio (%): oral twice a day for 5 days
Experimental: Using a cutaneous HSV-1 infection mouse model prepared in accordance with the method of H. Machida et al. (Antiviral Res., 1992, 17, 133-143), in vivo activity of the pharmaceutical composition of the present invention was tested. The skin of each HR-1 hairless mouse [female, 7 weeks of age] was scratched lengthwise and breadthwise several times using a needle and a virus suspension (HSV-1 strain WT-51, 1.5×10^4 PFU/15 μl) was dropped to the scarified region for infection, while anesthetized with diethyl ether.
Regarding the compounds to be tested, VCV was used as the polymerase inhibitor and made into a methyl cellulose suspension, the compound of Preparation 2, N-(4-methylphenyl)-N-(2-{[4-(1,3-oxazol-4-yl)phenyl]amino}-2-oxoethyl)tetrahydro-2H-thiopyran-4-carboxamide 1,1-dioxide, which is described later, was used as the helicase-primase inhibitor and made into a methyl cellulose suspension, and they were orally administered at the doses of the following table twice a day for 5 days starting after 3 hours of the infection. The symptom of the skin lesion caused by HSV-1 infection were classified in the following scores for 17 days:
Score 0: no signs of infection.
Score 1: localized, barely perceptible small vesicles.
Score 2: slight vesicle spread.
Score 3: large patches of vesicles formed.
Score 4: zosteriform vesicles.
Score 5: large patches of ulcers formed.
Score 6: zosteriform with severe large ulcers.
Score 7: hind limb paralysis or death.
The AUC value was calculated from each group's mean disease score, and the disease inhibitory rate of the group administered with each test compound to the placebo group was calculated using the AUC.
In the same manner as described in the above, VCV was used as the polymerase inhibitor and the compound of Preparation 27, N-(2,6-dimethylphenyl)-N-(2-{[4-(1,2,4-oxadiazol-3-yl)phenyl]amino}-2-oxoethyl)tetrahydro-2H-thiopyran-4-carboxamide 1,1-dioxide, which is described later, was used as the helicase-primase inhibitor, with the results shown in the following table.

[1] = molecular target: T1, HSV-1 helicase-primase complex (Human herpesvirus 1, UniProt P10189+P10236); test: Helicase-primase inhibitory activity (DNA-dependent ATPase activity, Malachite Green); assay type: biochemical
T1 construct: made in house; host or cells: Baculovirus expression; The baculoviruses came from Dr. Nigel D. Stow (MRC, UK)
T1 sequence (P10236 whole entry): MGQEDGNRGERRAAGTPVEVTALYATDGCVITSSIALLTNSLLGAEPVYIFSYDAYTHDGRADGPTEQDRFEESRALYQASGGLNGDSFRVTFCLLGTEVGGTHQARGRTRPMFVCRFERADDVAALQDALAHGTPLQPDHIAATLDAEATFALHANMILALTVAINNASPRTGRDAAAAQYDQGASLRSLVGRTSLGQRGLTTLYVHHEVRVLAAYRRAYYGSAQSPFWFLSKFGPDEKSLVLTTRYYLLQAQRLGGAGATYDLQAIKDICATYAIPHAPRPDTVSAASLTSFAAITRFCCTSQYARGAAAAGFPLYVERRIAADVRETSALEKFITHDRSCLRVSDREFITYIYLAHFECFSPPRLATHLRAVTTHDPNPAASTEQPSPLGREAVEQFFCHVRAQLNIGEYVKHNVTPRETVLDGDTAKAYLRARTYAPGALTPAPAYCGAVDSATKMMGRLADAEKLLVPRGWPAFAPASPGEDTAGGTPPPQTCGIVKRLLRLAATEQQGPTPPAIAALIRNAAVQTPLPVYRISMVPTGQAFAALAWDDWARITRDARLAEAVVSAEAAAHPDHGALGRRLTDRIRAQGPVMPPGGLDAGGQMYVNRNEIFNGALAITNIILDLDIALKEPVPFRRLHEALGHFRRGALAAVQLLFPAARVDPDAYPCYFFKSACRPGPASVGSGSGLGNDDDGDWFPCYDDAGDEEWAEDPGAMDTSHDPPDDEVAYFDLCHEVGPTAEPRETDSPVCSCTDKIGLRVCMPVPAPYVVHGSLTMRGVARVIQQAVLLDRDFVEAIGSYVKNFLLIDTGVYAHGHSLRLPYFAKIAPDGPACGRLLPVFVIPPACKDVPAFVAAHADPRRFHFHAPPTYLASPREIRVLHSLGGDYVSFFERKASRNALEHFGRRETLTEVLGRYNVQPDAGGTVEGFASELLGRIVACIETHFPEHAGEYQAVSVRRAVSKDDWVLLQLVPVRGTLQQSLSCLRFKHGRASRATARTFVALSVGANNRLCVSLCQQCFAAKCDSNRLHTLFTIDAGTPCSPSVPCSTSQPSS
T1 sequence (P10192 whole entry, further chain): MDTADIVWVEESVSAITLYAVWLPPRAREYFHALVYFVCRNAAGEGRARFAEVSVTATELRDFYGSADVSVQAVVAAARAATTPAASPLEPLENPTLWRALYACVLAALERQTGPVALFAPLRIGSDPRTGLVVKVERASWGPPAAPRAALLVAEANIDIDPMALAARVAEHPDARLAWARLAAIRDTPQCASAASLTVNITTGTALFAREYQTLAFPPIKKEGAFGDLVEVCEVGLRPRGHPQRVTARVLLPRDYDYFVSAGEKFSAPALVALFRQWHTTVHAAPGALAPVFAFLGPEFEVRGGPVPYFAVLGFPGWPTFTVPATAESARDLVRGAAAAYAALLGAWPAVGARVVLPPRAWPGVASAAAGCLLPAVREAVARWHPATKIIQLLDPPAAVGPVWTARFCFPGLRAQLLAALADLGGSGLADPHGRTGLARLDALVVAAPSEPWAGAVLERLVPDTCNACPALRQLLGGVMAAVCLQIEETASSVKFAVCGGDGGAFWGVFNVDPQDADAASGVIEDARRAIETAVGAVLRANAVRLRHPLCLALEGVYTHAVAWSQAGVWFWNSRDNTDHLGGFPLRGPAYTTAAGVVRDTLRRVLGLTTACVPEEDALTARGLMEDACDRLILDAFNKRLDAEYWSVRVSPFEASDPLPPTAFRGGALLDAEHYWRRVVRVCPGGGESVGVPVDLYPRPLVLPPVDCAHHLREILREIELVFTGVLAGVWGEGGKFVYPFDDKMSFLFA
T1 sequence (P10189 whole entry): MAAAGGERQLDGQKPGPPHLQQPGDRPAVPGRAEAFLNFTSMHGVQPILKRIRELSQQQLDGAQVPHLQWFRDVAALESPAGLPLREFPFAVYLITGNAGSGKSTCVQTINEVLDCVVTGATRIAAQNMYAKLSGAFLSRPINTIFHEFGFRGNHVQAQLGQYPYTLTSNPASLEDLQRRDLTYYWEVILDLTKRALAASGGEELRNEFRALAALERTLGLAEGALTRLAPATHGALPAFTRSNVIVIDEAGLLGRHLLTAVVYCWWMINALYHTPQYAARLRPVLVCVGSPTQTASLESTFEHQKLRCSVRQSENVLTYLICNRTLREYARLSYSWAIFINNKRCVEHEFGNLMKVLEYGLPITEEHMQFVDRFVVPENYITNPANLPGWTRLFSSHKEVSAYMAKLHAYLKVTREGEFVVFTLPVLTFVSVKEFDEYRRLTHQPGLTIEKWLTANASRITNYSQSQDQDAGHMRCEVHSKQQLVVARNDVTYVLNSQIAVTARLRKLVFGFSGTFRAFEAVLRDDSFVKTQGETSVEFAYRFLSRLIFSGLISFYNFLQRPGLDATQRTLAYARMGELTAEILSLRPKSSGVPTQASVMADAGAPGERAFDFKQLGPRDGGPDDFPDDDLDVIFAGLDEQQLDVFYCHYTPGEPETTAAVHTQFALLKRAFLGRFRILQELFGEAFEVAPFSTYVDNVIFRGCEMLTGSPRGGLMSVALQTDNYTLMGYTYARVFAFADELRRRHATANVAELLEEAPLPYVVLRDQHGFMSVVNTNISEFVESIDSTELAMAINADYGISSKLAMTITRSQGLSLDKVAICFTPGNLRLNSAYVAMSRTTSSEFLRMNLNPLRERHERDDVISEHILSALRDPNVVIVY
Experimental: Using an Baculoviruses for expressing respective proteins of UL5, UL52 and UL8 which constitute an HSV-1 helicase-primase complex (obtained from Dr. Nigel D. Stow, Medical Research Council, UK), a recombinant HSV-1 helicase-primase complex was prepared by the method described in a report of Crute et al. (J. B. C., 1991, Vol. 266, p. 21252-21256). Detection of DNA-dependent ATPase activity of the HSV-1 helicase-primase complex was carried out in reference to the method described in a report of Crute et al. (J. B. C., 1991, Vol. 266, p. 4484-4488). In brief, 520 ng of the HSV-1 helicase-primase complex was allowed to undergo the reaction at 30° C. for 30 minutes in a reaction liquid containing 20 μg/ml of heat-denatured bovine sperm DNA and 2 mM ATP, and then concentration of phosphoric acid formed through the hydrolysis of ATP into ADP and monophosphate by the activity of ATPase was determined by adding the same volume of Malachite Green reagent (0.03% Malachite Green, 0.1% ammonium molybdate, 4.8% sulfuric acid) and measuring the resulting absorbance at 650 nm. The 50% inhibition concentration (IC50 value) of each compound to be tested for HSV-1 helicase-primase DNA-dependent ATPase was calculated as the concentration which halves the phosphoric acid concentration at the time of not adding the compound.

Structure (SMILES): Cc1cccc(C)c1N(CC(=O)Nc1ccc(-c2ncon2)cc1)C(=O)C1CCS(=O)(=O)CC1 [Preparation 27, N-(2,6-dimethylphenyl)-N-(2-{[4-(1,2,4-oxadiazol-3-yl)phenyl]amino}-2-oxoethyl)tetrahydro-2H-thiopyran-4-carboxamide 1,1-dioxide]
- Lesion inhibitory ratio (%) (HSV-1 strain WT-51; Table 3, compound of Preparation 27 1 mg/kg, VCV 0 mg/kg): 33%
- Lesion inhibitory ratio (%) (HSV-1 strain WT-51; Table 3, compound of Preparation 27 3 mg/kg, VCV 0 mg/kg): 68%
- Lesion inhibitory ratio (%) (HSV-1 strain WT-51; Table 3, concomitant use: VCV 10 mg/kg + compound of Preparation 27 1 mg/kg): 66%
- Lesion inhibitory ratio (%) (HSV-1 strain WT-51; Table 3, concomitant use: VCV 10 mg/kg + compound of Preparation 27 3 mg/kg): 86%
- Lesion inhibitory ratio (%) (HSV-1 strain WT-51; Table 3, concomitant use: VCV 30 mg/kg + compound of Preparation 27 1 mg/kg): 88%
- Lesion inhibitory ratio (%) (HSV-1 strain WT-51; Table 3, concomitant use: VCV 30 mg/kg + compound of Preparation 27 3 mg/kg): 100%
- lesion inhibitory activity (in words) (HSV-1 strain WT-51; concomitant use groups VCV 10 mg/kg + 3 mg/kg, VCV 30 mg/kg + 1 mg/kg, VCV 30 mg/kg + 3 mg/kg of the compound of Preparation 27, compared with VCV single administration): good lesion inhibitory activity in comparison with the VCV single administration group
- inhibition of the lesions (in words) (HSV-1 strain WT-51; concomitant use of 30 mg/kg of VCV with 3 mg/kg of the compound of Preparation 27): completely inhibited the lesions
- IC50 [1]: 110 nM

Structure (SMILES): CC(C)[C@H](N)C(=O)OCCOCn1cnc2c(=O)[nH]c(N)nc21 [VCV, valacyclovir, reference compound]
- Lesion inhibitory ratio (%) (HSV-1 strain WT-51; Table 2, VCV 10 mg/kg alone): 45%
- Lesion inhibitory ratio (%) (HSV-1 strain WT-51; Table 2, VCV 30 mg/kg alone): 57%
- Lesion inhibitory ratio (%) (HSV-1 strain WT-51; Table 3, VCV 10 mg/kg alone): 42%
- Lesion inhibitory ratio (%) (HSV-1 strain WT-51; Table 3, VCV 30 mg/kg alone): 52%

Structure (SMILES): Cc1ccc(N(CC(=O)Nc2ccc(-c3cocn3)cc2)C(=O)C2CCS(=O)(=O)CC2)cc1 [Preparation 2, N-(4-methylphenyl)-N-(2-{[4-(1,3-oxazol-4-yl)phenyl]amino}-2-oxoethyl)tetrahydro-2H-thiopyran-4-carboxamide 1,1-dioxide]
- Lesion inhibitory ratio (%) (HSV-1 strain WT-51; Table 2, compound of Preparation 2 1 mg/kg, VCV 0 mg/kg, AUC of disease score over 17 days vs placebo): 38%
- Lesion inhibitory ratio (%) (HSV-1 strain WT-51; Table 2, compound of Preparation 2 3 mg/kg, VCV 0 mg/kg): 52%
- Lesion inhibitory ratio (%) (HSV-1 strain WT-51; Table 2, concomitant use: VCV 10 mg/kg + compound of Preparation 2 1 mg/kg): 76%
- Lesion inhibitory ratio (%) (HSV-1 strain WT-51; Table 2, concomitant use: VCV 10 mg/kg + compound of Preparation 2 3 mg/kg): 83%
- Lesion inhibitory ratio (%) (HSV-1 strain WT-51; Table 2, concomitant use: VCV 30 mg/kg + compound of Preparation 2 1 mg/kg): 86%
- Lesion inhibitory ratio (%) (HSV-1 strain WT-51; Table 2, concomitant use: VCV 30 mg/kg + compound of Preparation 2 3 mg/kg): 91%
- lesion inhibitory activity (in words) (HSV-1 strain WT-51; concomitant use group of VCV with the compound of Preparation 2, compared with VCV single administration): good lesion inhibitory activity in comparison with the VCV single administration group
- inhibition of the lesions (in words) (HSV-1 strain WT-51; concomitant use of 30 mg/kg of VCV with 3 mg/kg of the compound of Preparation 2): almost completely inhibited the lesions
- IC50 [1]: 84 nM
